IC50 data for 4 compounds are collected here from PubChem BioAssay AID651697 (Sanford-Burnham Center for Chemical Genomics, 2012).

pIC50: −log10 of the molar value.

The target of the test is Sentrin-specific protease 1 (Homo sapiens) (UniProt Q9P0U3). Kind of test: potency of human SENP1 inhibitors, dose response, biochemical, kinetic FRET (AID 651697). The settings on record: recombinant SENP1 catalytic domain, kinetic FRET protease assay.
Chain of Sentrin-specific protease 1 (Homo sapiens) (Q9P0U3 419-644 limits assumed): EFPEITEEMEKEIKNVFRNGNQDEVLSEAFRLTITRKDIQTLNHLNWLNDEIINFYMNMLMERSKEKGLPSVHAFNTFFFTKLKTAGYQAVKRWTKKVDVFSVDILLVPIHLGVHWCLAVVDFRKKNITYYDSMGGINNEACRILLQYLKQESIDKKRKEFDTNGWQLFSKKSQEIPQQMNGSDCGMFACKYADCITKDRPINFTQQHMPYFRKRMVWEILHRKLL

A word on the pIC50: it is −log10 of the IC50, conventionally taken in molar units. Turning to `COCCNC(=O)c1cccc2c1C(=O)c1ccc(N3CCOCC3)cc1S2(=O)=O`, the pIC50 was 4.85.

With `Cc1nc2ccc(NS(=O)(=O)c3ccc(F)cc3F)cc2s1`, the pIC50 was 4.73.

For `O=C(c1ccccc1)[C@@H]1[C@@H]2C(=O)N(c3ccc(F)cc3)C(=O)[C@@H]2C2CCCN21` (some centres undefined), the pIC50 is 5.11.

With `Oc1ccc(Cl)cc1C1=Nc2ccccc2N=C(c2ccco2)C1`, the pIC50 was 5.08.
